The source made the active and inactive calls. The calls are words filed in the database; no cut-off is given here.
Columns and labels:
PC-3 [1] = assay: Cytotoxicity against human PC-3 cells assessed as reduction in cell viability measured after 24 hrs by MTT assay; type: functional, cell-based; conditions: PC-3, 24 h
PC-3 [2] = assay: Cytotoxicity against human PC-3 cells assessed as reduction in cell viability at 25 uM measured after 24 hrs by MTT assay relative to control; type: functional
PC-3 [3] = assay: Cytotoxicity against human PC-3 cells assessed as reduction in cell viability at 50 uM measured after 24 hrs by MTT assay relative to control; type: functional
PC-3 [4] = assay: Cytotoxicity against human PC-3 cells assessed as reduction in cell viability at 10 uM measured after 24 hrs by MTT assay relative to control; type: functional
PC-3 [5] = assay: Cytotoxicity against human PC-3 cells assessed as reduction in cell viability at 100 uM measured after 24 hrs by MTT assay relative to control; type: functional
PC-3 [6] = assay: Cytotoxicity against human PC-3 cells assessed as reduction in cell viability at 100 uM measured after 24 hrs by MTT assay; type: functional, cell-based

COc1cccc2c1C(=O)c1c(O)c3c(c(O)c1C2=O)C[C@@](O)(C(=O)CO)C[C@@H]3O[C@H]1C[C@H](N)[C@H](O)[C@H](C)O1 [DOXORUBICIN]
IC50 (PC-3 [1]): 0.77 µM

Cc1ccc(C(=O)/C=C/c2cnn(-c3ccccc3)n2)c(C)c1
Activity (PC-3 [2]): 39.03% | Activity (PC-3 [3]): 3% | IC50 (PC-3 [1]): 15.6 µM | Activity (PC-3 [4]): 85.61% | Activity (PC-3 [5]): 0%

O=C(/C=C/c1cnn(-c2ccccc2)n1)c1cccs1
Activity (PC-3 [3]): 50% | IC50 (PC-3 [1]): 47.9 µM | Activity (PC-3 [5]): 24.23%

COc1cc(-c2cccs2)cc(-c2nnn(Cc3ccccc3)c2C)n1
IC50 (PC-3 [1]): 1.03 µM

C/C(=C\c1cnn(-c2ccccc2)n1)C(=O)c1ccc(F)cc1
Activity (PC-3 [6]): inactive

O=C(/C=C/c1cnn(-c2ccccc2)n1)c1ccccc1
Activity (PC-3 [2]): 44.7% | IC50 (PC-3 [1]): 28.6 µM | Activity (PC-3 [4]): 73.62% | Activity (PC-3 [5]): 6.38%

C/C(=C\c1cnn(-c2ccccc2)n1)C(=O)c1ccc(C(F)(F)F)cc1
Activity (PC-3 [6]): inactive

COc1ccc(C(=O)/C=C/c2cnn(-c3ccccc3)n2)c(OC)c1
Activity (PC-3 [2]): 16.03% | IC50 (PC-3 [1]): 25.6 µM | Activity (PC-3 [4]): 73.03% | Activity (PC-3 [5]): 5.37%

C/C(=C\c1cnn(-c2ccccc2)n1)C(=O)c1ccccc1
Activity (PC-3 [6]): inactive

— ChEMBL document CHEMBL4699455, “2H-1,2,3-Triazole-chalcones as novel cytotoxic agents against prostate cancer” (Bioorg Med Chem Lett, 2020)
